{"source": "paper PMC10257520", "about": "(Journal of medicinal chemistry, 2022)", "key": {"NCI-H522 cells": {"tested_on": "NCI-H522 cells", "assay": "Time-lapse microscopy of cell death", "format": "cell-based, human", "conditions": "for Time from initiation of ferroptosis until most/all cells were dead: CETZOLE-1 20 μM (most of the cells), HY-1 5 μM (all cells); for Start of ferroptosis after treatment: CETZOLE-1 20 μM, HY-1 5 μM"}, "RPE cells": {"tested_on": "RPE cells", "assay": "cells", "conditions": "Homo sapiens, read-out: IC50 on RPE cells"}, "SH-SY5Y cells": {"tested_on": "SH-SY5Y cells", "assay": "MTT cell viability assay, SH-SY5Y neuroblastoma cells", "format": "cell-based, human", "conditions": "0.5×, 1×, 2× IC50 of the controls on H522; HY-1 at 2.32 μM"}, "PC-12 cells": {"tested_on": "PC-12 cells", "assay": "MTT cytotoxicity on undifferentiated and differentiated PC-12 cells", "format": "cell-based", "conditions": "MTT after 24 h of treatment"}, "[1]": {"tested_on": "NCI-60 human tumor cell lines", "assay": "cells"}, "[2]": {"tested_on": "HDAC 1, 2, 3, 4, 6, and 8", "conditions": "recombinant HDAC proteins"}, "[3]": {"tested_on": "lipid peroxides in NCI-H522 cells", "assay": "C11-BODIPY lipid peroxidation assay", "format": "cell-based, human", "conditions": "NCI-H522, 10 μM, 6 h"}, "LOXIMVI [4]": {"tested_on": "LOXIMVI", "assay": "cells", "conditions": "Homo sapiens, LOX IMVI, read-out: GI50, LOXIMVI"}, "IGROV-1 [5]": {"tested_on": "IGROV-1", "assay": "cells", "conditions": "Homo sapiens, IGROV-1, read-out: GI50, IGROV-1"}, "PC-3 [6]": {"tested_on": "PC-3", "assay": "cells", "conditions": "Homo sapiens, PC-3, read-out: GI50, PC-3"}, "DU-145 [7]": {"tested_on": "DU-145", "assay": "cells", "conditions": "Homo sapiens, DU-145, read-out: GI50, DU-145"}, "Class I HDACs": {"tested_on": "Class I HDACs", "conditions": "read-out: IC50 for Class I HDACs; recombinant HDAC proteins"}, "NCI-H23 cell line": {"tested_on": "NCI-H23 cell line", "conditions": "one-dose; ref public data base of NCI (NSC 759852); cited from earlier work"}, "DU-145 cells": {"tested_on": "DU-145 cells", "conditions": "one-dose; ref public data base of NCI (NSC 759852); cited from earlier work"}, "RPMI-8226": {"tested_on": "RPMI-8226", "conditions": "read-out: GI50, RPMI-8226; five-dose assay; ref public data base of NCI (NSC 759852); cited from earlier work"}, "NCI-H23": {"tested_on": "NCI-H23", "conditions": "read-out: GI50, NCI-H23; five-dose assay; ref public data base of NCI (NSC 759852); cited from earlier work"}, "SF-539 cell line": {"tested_on": "SF-539 cell line", "conditions": "read-out: GI50, SF-539; five-dose assay; ref public data base of NCI (NSC 759852); cited from earlier work"}, "LOXIMVI [8]": {"tested_on": "LOXIMVI", "conditions": "read-out: GI50, LOXIMVI; five-dose assay; ref public data base of NCI (NSC 759852); cited from earlier work"}, "IGROV-1 [9]": {"tested_on": "IGROV-1", "conditions": "read-out: GI50, IGROV-1; five-dose assay; ref public data base of NCI (NSC 759852); cited from earlier work"}, "PC-3 [10]": {"tested_on": "PC-3", "conditions": "read-out: GI50, PC-3; five-dose assay; ref public data base of NCI (NSC 759852); cited from earlier work"}, "DU-145 [11]": {"tested_on": "DU-145", "conditions": "read-out: GI50, DU-145; five-dose assay; ref public data base of NCI (NSC 759852); cited from earlier work"}, "HS578": {"tested_on": "HS578", "conditions": "read-out: GI50, HS578; five-dose assay; ref public data base of NCI (NSC 759852); cited from earlier work"}}, "note": "Where two headings read alike, the source gives them in different places.", "data": [{"compound": "C#Cc1nc(C2=C(C)[C@@H](O)CC2)cs1", "note": "[CETZOLE-1]", "values": [{"measurement": "Time from initiation of ferroptosis until most/all cells were dead", "setting": "NCI-H522 cells", "result": "≤ 8", "unit": "h"}, {"measurement": "Start of ferroptosis after treatment", "setting": "NCI-H522 cells", "result": "approximately 12 h"}, {"measurement": "IC50", "setting": "RPE cells", "result": "> 30000", "unit": "nM"}]}, {"compound": "C#Cc1nc(C(=O)NCCCCCCC(=O)OC)cs1", "note": "[FC-1, Methyl 7-(2-Ethynylthiazole-4-carboxamido)heptanoate]", "values": [{"measurement": "Effect on neuronal cells (SH-SY5Y viability, neurotoxicity)", "setting": "SH-SY5Y cells", "result": "significant neurotoxicity"}, {"measurement": "Effect on PC-12 cells (differentiated and undifferentiated)", "setting": "PC-12 cells", "result": "resistant"}]}, {"compound": "O=C(CCCCCCNC(=O)c1csc(Br)n1)NO", "note": "[HC-1, 2-Bromo-N-(7-(hydroxyamino)-7-oxoheptyl)thiazole-4-carboxamide]", "values": [{"measurement": "Effect on neuronal cells (SH-SY5Y viability, neurotoxicity)", "setting": "SH-SY5Y cells", "result": "very mild toxicity"}, {"measurement": "GI50", "setting": "[1]; read-out: Average GI50", "result": 1510, "unit": "nM"}]}, {"compound": "O=C(/C=C/C=C/c1csc(Br)n1)NO", "note": "[HC-4, (2E,4E)-5-(2-Bromothiazol-4-yl)-N-hydroxypenta-2,4-dienamide]", "values": [{"measurement": "HDAC inhibitory activity", "setting": "[2]", "result": "poor HDAC inhibitory activity"}]}, {"compound": "C#Cc1nc(C(=O)NCCCCCCC(=O)NO)cs1", "note": "[HY-1, 2-Ethynyl-N-(7-(hydroxyamino)-7-oxoheptyl)thiazole-4-carboxamide]", "values": [{"measurement": "Effect on neuronal cells (SH-SY5Y viability, neurotoxicity)", "setting": "SH-SY5Y cells", "result": "no neurotoxic effects"}, {"measurement": "Effect on PC-12 cells (differentiated and undifferentiated)", "setting": "PC-12 cells", "result": "behaved like the HDAC control HC-1"}, {"measurement": "Lipid peroxide levels (C11-BODIPY 581/591)", "setting": "[3]", "result": "increased levels of lipid peroxides"}, {"measurement": "Time from initiation of ferroptosis until most/all cells were dead", "setting": "NCI-H522 cells", "result": "≤ 2", "unit": "h"}, {"measurement": "Start of ferroptosis after treatment", "setting": "NCI-H522 cells", "result": 8, "unit": "h"}, {"measurement": "GI50", "setting": "[1]; read-out: Average GI50", "result": 850, "unit": "nM"}, {"measurement": "GI50", "setting": "[1]; read-out: GI50 values as low as (best cell line)", "result": 20, "unit": "nM"}, {"measurement": "GI50", "setting": "LOXIMVI [4]", "result": 20, "unit": "nM"}, {"measurement": "GI50", "setting": "IGROV-1 [5]", "result": 570, "unit": "nM"}, {"measurement": "GI50", "setting": "PC-3 [6]", "result": 2000, "unit": "nM"}, {"measurement": "GI50", "setting": "DU-145 [7]", "result": 360, "unit": "nM"}]}, {"compound": "C#Cc1nc(/C=C\\CCCCCC(=O)NO)cs1", "note": "[HY-2, (Z)-8-(2-Ethynylthiazol-4-yl)-N-hydroxyoct-7-enamide]", "values": [{"measurement": "GI50", "setting": "[1]; read-out: Average GI50", "result": 2180, "unit": "nM"}]}, {"compound": "C#Cc1nc(/C=C/CCCCCC(=O)NO)cs1", "note": "[HY-3, (E)-8-(2-Ethynylthiazol-4-yl)-N-hydroxyoct-7-enamide]", "values": [{"measurement": "GI50", "setting": "[1]; read-out: Average GI50", "result": 3390, "unit": "nM"}]}, {"compound": "C#Cc1nc(/C=C/C=C/C(=O)NO)cs1", "note": "[HY-4, (2E,4E)-5-(2-Ethynylthiazol-4-yl)-N-hydroxypenta-2,4-dienamide]", "values": [{"measurement": "Effect on neuronal cells (SH-SY5Y viability, neurotoxicity)", "setting": "SH-SY5Y cells", "result": "not showing attenuated neurotoxicity"}, {"measurement": "HDAC inhibitory activity", "setting": "[2]", "result": "poor HDAC inhibitory activity"}]}, {"compound": "C#Cc1nc(/C=C/C(=O)NO)cs1", "note": "[HY-5, (E)-3-(2-Ethynylthiazol-4-yl)-N-hydroxyacrylamide]", "values": [{"measurement": "IC50", "setting": "Class I HDACs", "result": "890 to 1100", "unit": "nM"}, {"measurement": "GI50", "setting": "[1]; read-out: Average GI50", "result": 2470, "unit": "nM"}]}, {"compound": "COC(=O)CCCCCCNC(=O)c1csc(Br)n1", "note": "[NC-1, Methyl 7-(2-Bromothiazole-4-carboxamido)heptanoate]", "values": [{"measurement": "Effect on neuronal cells (SH-SY5Y viability, neurotoxicity)", "setting": "SH-SY5Y cells", "result": "no effect"}]}, {"compound": "O=C(CCCCCCC(=O)Nc1ccccc1)NO", "note": "[SAHA]", "values": [{"measurement": "Time after treatment at which cells were still alive", "setting": "NCI-H522 cells; SAHA 5 μM", "result": "≥ 60", "unit": "h"}, {"measurement": "Growth %, NCI-H23", "setting": "NCI-H23 cell line", "result": 3.30, "unit": "%"}, {"measurement": "Growth %, DU-145", "setting": "DU-145 cells", "result": 3.5, "unit": "%"}, {"measurement": "GI50", "setting": "RPMI-8226", "result": 1500, "unit": "nM"}, {"measurement": "GI50", "setting": "NCI-H23", "result": 2000, "unit": "nM"}, {"measurement": "GI50", "setting": "SF-539 cell line", "result": 2000, "unit": "nM"}, {"measurement": "GI50", "setting": "LOXIMVI [8]", "result": 1250, "unit": "nM"}, {"measurement": "GI50", "setting": "IGROV-1 [9]", "result": 2000, "unit": "nM"}, {"measurement": "GI50", "setting": "PC-3 [10]", "result": 1580, "unit": "nM"}, {"measurement": "GI50", "setting": "DU-145 [11]", "result": 1250, "unit": "nM"}, {"measurement": "GI50", "setting": "HS578", "result": 2000, "unit": "nM"}]}]}
